In patent publication US20020091086A1, “Peptides that block viral infectivity and methods of use thereof” (priority 1999, published 2002):
Peptide text beside a SMILES is read from it.

Key:
GPG-deleted mutant mp8 = test: infectivity in MT-2 cells, p24 ELISA, GPG-deleted mutant mp8; format: cell-based, HIV-1
Method: Accordingly, the ability of GPG-NH2 to inhibit the infectivity of wild-type and V3-loop deletion mutants (GPG domain) in MT-2 cells was determined. In these experiments, approximately 200,000 MT-2 cells were infected with HIV-1Bru wild-type and GPG-deleted mutants mp8 and mp10 at 25 TCID50 to test the inhibitory effect of GPG-NH2 The MT-2 cells were resuspended in 1 ml of RPMT 1640 medium supplemented with 10% (v/v) heat-inactivated fetal bovine serum (FBS, GIBCO), penicillin (100μ/ml), streptomycin (100μ/ml) and Polybrene (Sigma 2 μg/ml) with or without the presence of GPG-NH2 at concentration 20 of μM and 100 μM. Thereafter, viruses were added at 25 TCID50 in a volume of 20-30 μl. Cells were incubated with virus at 37° C. for 16 hr then loosely pelleted by centrifugation at 170×g for 7 minutes. The cells were then washed three times in RPMI medium without peptides at room temperature by cell sedimentation at 170×g for 7 minutes as above. After the final wash, the cells were resuspended in RPMI culture medium in 24-well plate (Costar corporation) then kept at 37° C. in 5% CO2 with humidity. Culture supernatants were collected when medium was changed at day 4, 7, 11 and 14 post infection. To monitor the replication of virus, HIV-1 p24 antigen protein in the supernatants from day 7 and 14 was assayed by a ELISA kit (Abbott Laboratories) which has a linear dose-response range from 20 pg to 640 pg of p24 per ml and the p24 amount can be determined with aid of the regression line.

[1] = acid stability in 50 mM KCl and 0.1M HCl by TLC; format: physicochemical; settings: up to 24 hours
Method: Because an oral administration of a pharmaceutical comprising a small peptide is desired, the acid stability of small peptides was assessed by incubating ^14C-labelled GPG-NH2 in a solution of 50 mM KCl and 0.1M HCl for various time periods. After acid hydrolysis, the radiolabeled tripeptide was analyzed by thin layer chromatography (TLC) and the HPTLC plate was developed with 25% methanol: 25%isopropanol: 15% butanol: 35% (0.1N HOAc and 0.1N NaOAc).

NCC(=O)N1CCC[C@H]1C(=O)NCC(N)=O [GPG-NH2, glycyl-prolyl-glycine amide] (H-Gly-Pro-Gly-NH2)
p24 (GPG-deleted mutant mp8; GPG 20 μM, Day 7): 2420 pg/mL | reduction (%) (GPG-deleted mutant mp8; GPG 20 μM, Day 7): 24% | p24 (GPG-deleted mutant mp8; GPG 20 μM, Day 14): 69100 pg/mL | reduction (%) (GPG-deleted mutant mp8; GPG 20 μM, Day 14): 53% | p24 (GPG-deleted mutant mp8; GPG 100 μM, Day 7): 208 pg/mL | reduction (%) (GPG-deleted mutant mp8; GPG 100 μM, Day 7): 93% | p24 (GPG-deleted mutant mp8; GPG 100 μM, Day 14): 7410 pg/mL | reduction (%) (GPG-deleted mutant mp8; GPG 100 μM, Day 14): 95% | TLC mobility after acid exposure [1]: did not affect the mobility
